Columns and labels:
[1] = target: T1, Prostaglandin G/H synthase 1 (Rattus norvegicus, UniProt Q63921); type: functional
T1 sequence (Q63921 whole entry): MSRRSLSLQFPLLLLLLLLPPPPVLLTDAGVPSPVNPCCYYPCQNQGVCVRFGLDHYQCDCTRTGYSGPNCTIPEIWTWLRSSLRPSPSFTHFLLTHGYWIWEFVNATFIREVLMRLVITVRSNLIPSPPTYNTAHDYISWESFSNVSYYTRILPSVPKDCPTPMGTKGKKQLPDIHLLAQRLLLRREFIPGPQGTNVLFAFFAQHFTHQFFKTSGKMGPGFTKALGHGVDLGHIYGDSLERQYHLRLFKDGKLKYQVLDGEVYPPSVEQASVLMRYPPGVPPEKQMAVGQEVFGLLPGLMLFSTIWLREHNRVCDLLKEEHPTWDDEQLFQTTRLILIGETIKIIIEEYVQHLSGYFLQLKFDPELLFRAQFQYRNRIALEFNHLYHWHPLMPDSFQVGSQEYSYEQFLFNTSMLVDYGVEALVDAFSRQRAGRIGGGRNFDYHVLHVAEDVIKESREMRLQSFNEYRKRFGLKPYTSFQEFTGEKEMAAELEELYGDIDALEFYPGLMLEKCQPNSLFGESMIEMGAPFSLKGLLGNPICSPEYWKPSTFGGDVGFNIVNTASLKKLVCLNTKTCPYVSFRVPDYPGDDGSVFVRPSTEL

[2] = target: T2, Alpha-2A adrenergic receptor (Homo sapiens, UniProt P08913); type: functional, cell-based
T2 sequence (P08913 whole entry): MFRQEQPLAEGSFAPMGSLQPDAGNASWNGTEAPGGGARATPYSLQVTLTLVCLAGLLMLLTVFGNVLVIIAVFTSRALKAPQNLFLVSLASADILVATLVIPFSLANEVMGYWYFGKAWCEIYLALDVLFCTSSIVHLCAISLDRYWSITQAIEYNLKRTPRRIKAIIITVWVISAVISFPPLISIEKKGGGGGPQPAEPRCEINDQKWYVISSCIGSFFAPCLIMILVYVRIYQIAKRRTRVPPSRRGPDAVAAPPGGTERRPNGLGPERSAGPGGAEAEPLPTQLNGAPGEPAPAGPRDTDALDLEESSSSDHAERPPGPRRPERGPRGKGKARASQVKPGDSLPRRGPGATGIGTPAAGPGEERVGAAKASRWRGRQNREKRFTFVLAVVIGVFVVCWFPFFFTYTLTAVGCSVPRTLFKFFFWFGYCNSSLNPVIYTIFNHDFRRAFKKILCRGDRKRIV

Adenosine receptor A1 = target: T3, Adenosine receptor A1 (Homo sapiens, UniProt P30542)
T3 sequence (P30542 whole entry): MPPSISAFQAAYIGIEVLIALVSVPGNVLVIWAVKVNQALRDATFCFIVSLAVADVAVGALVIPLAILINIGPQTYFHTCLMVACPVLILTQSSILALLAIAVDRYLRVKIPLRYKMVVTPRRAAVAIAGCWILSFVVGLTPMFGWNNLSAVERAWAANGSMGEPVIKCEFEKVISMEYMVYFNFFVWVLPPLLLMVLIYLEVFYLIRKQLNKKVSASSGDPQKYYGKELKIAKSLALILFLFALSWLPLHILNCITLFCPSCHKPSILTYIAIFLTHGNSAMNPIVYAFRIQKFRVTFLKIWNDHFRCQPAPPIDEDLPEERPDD

[3] = target: Sodium-dependent noradrenaline transporter (Homo sapiens, UniProt P23975)
Sequence of Sodium-dependent noradrenaline transporter (P23975 whole entry): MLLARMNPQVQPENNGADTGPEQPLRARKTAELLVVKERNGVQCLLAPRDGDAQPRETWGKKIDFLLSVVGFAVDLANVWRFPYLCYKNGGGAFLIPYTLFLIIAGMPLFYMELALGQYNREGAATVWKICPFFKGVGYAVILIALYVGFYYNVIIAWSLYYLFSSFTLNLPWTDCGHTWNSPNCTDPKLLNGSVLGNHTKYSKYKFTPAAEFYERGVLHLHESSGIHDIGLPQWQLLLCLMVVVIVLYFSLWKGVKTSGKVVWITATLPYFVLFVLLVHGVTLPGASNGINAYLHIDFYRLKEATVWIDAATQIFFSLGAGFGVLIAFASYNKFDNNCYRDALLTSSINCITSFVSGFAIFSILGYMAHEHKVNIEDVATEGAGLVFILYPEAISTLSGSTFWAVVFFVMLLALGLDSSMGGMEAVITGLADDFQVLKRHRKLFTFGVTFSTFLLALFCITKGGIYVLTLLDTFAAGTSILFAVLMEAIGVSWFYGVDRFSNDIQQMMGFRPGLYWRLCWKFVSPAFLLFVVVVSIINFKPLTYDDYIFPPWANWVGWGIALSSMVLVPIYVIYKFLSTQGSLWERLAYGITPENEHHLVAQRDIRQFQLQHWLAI

[4] = target: T4, Type-1 angiotensin II receptor (Homo sapiens, UniProt P30556)
T4 sequence (P30556 whole entry): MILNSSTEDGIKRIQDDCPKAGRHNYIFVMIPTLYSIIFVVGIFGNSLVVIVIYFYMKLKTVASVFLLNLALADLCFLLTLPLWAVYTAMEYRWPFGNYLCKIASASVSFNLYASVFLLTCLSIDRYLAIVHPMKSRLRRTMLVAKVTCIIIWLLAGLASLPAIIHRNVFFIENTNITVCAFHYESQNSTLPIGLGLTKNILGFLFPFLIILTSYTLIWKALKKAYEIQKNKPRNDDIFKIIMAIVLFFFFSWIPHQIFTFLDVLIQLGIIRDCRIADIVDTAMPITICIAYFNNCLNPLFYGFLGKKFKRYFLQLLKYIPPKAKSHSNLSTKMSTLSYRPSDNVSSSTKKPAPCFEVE

Motilin receptor = Motilin receptor (Homo sapiens, UniProt O43193)
Sequence of Motilin receptor (O43193 whole entry): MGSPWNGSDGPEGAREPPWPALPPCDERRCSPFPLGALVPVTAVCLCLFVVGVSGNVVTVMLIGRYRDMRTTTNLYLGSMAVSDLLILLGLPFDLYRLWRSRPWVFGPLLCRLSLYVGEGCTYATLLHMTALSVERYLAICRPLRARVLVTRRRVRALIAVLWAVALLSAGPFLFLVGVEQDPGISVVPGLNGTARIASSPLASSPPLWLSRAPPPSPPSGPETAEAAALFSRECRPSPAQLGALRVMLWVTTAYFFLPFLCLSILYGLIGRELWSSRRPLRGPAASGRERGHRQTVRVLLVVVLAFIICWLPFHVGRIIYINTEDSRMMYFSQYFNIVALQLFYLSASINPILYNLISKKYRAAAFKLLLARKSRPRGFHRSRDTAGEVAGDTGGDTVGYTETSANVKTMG

[5] = target: T5, 5-hydroxytryptamine receptor 2B (Homo sapiens, UniProt P41595); type: functional, cell-based
T5 sequence (P41595 whole entry): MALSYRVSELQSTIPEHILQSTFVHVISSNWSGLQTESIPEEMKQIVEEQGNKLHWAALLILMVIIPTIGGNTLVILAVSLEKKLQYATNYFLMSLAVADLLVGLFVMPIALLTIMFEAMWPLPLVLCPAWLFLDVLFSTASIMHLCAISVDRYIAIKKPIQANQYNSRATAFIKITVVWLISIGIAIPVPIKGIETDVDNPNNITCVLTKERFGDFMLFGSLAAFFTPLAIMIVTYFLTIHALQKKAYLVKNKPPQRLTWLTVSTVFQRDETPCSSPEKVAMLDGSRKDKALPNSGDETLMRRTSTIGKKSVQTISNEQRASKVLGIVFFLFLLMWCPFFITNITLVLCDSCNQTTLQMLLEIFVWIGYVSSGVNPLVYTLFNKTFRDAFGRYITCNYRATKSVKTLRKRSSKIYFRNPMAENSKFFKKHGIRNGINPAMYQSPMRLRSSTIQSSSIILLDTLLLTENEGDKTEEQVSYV

Vasopressin V1a receptor = Vasopressin V1a receptor (Homo sapiens, UniProt P37288)
Sequence of Vasopressin V1a receptor (P37288 whole entry): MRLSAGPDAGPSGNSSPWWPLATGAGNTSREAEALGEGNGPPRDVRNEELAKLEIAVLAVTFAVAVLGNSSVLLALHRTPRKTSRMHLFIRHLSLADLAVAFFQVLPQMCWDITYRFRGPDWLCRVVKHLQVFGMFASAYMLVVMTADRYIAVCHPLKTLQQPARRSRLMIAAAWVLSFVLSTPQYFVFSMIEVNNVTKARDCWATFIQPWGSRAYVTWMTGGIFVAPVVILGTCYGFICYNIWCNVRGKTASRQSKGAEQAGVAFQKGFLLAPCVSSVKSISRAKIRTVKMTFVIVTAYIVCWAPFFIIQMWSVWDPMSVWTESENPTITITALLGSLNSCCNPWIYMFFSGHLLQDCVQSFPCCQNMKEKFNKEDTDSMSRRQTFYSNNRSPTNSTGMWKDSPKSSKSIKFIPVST

[6] = target: Glutamate receptor ionotropic, NMDA 1 (Rattus norvegicus, UniProt P35439)
[7] = target: T5, 5-hydroxytryptamine receptor 2B; type: functional, cell-based; remark: listed apart in the source
Vasopressin V2 receptor = Vasopressin V2 receptor (Homo sapiens, UniProt P30518)
Sequence of Vasopressin V2 receptor (P30518 whole entry): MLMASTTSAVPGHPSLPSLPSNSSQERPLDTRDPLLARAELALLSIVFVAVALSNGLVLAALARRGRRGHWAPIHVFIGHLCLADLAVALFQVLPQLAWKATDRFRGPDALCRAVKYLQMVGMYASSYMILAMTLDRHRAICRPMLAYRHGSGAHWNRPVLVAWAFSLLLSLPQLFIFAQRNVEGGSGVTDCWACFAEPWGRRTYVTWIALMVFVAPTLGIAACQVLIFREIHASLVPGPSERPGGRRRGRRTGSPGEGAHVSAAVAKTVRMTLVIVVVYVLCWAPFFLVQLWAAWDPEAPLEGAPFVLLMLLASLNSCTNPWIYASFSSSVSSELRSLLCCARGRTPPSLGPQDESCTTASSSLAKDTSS

[8] = target: T6, 5-hydroxytryptamine receptor 3A (Homo sapiens, UniProt P46098); type: functional
T6 sequence (P46098 whole entry): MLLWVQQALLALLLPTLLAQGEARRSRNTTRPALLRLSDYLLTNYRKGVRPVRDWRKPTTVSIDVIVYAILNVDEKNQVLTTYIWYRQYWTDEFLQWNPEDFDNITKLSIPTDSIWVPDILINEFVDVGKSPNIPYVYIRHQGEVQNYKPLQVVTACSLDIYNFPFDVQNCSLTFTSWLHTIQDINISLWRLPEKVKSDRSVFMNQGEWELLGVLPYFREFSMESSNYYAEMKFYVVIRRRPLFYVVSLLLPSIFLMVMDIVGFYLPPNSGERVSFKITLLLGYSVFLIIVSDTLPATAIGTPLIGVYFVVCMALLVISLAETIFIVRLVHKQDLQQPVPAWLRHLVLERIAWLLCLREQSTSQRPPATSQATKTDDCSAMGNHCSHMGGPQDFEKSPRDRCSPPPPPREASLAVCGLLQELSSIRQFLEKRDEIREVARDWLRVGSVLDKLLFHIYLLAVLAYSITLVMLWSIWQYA
Also: assay procedure not described here.

| SMILES | AC50 [1] [µM] | AC50 [2] [µM] | AC50 (Adenosine receptor A1) [µM] | AC50 [3] [µM] | AC50 [4] [µM] | AC50 (Motilin receptor) [µM] | AC50 [5] [µM] | AC50 (Vasopressin V1a receptor) [µM] | AC50 [6] [µM] | AC50 [7] [µM] | AC50 (Vasopressin V2 receptor) [µM] | AC50 [8] [µM] |
| --- | --- | --- | --- | --- | --- | --- | --- | --- | --- | --- | --- | --- |
| CCCCCC(=O)O[C@]1(C(C)=O)CC[C@H]2[C@@H]3CCC4=CC(=O)CC[C@]4(C)[C@H]3CC[C@@]21C [HYDROXYPROGESTERONE CAPROATE] | > 30 | > 30 | > 30 | > 30 | > 30 | 28.1 | > 30 | > 30 | > 30 | > 30 | > 30 | > 30 |
| C[N@+]1(CCF)[C@@H]2CC[C@H]1C[C@@H](OC(=O)C(O)(c1ccccc1)c1ccccc1)C2 | > 10 | > 30 | > 30 | > 30 | > 30 | > 30 | > 30 | > 30 | > 30 | > 30 | > 30 | > 30 |
| O=C1CN=C(c2ccccn2)c2cc(Br)ccc2N1 [BROMAZEPAM] | > 10 | > 10 | > 10 | > 10 | > 10 | > 10 | > 10 | > 10 | > 10 | > 10 | > 10 | > 30 |
| CC(=O)[C@@]1(O)CC[C@H]2[C@@H]3C=C(Cl)C4=CC(=O)[C@@H]5C[C@@H]5[C@]4(C)[C@H]3CC[C@@]21C [CYPROTERONE] | > 10 | > 10 | > 10 | > 10 | > 30 | > 10 | > 10 | > 10 | > 10 | > 10 | > 10 | > 30 |
| CC(=O)O[C@H](CC(=O)[O-])C[N+](C)(C)C [ACETYLCARNITINE] | > 10 | > 30 | > 30 | > 30 | > 30 | > 30 | > 30 | > 30 | > 30 | > 30 | > 30 | > 30 |
| CCOC(=O)O[C@]1(C(=O)OCCl)CC[C@H]2[C@@H]3CCC4=CC(=O)C=C[C@]4(C)[C@H]3[C@@H](O)C[C@@]21C [LOTEPREDNOL ETABONATE] | > 30 | > 30 | > 30 | > 30 | > 30 | > 30 | > 30 | > 30 | > 30 | > 30 | > 30 | > 30 |
| CCN(CC)CCNC(=O)c1cc(S(C)(=O)=O)ccc1OC [TIAPRIDE] | > 30 | > 30 | > 30 | > 30 | > 30 | > 30 | 29 | > 30 | > 30 | > 30 | > 30 | > 30 |
| COc1ccc2nc3cc(Cl)ccc3c(Nc3cc(CN4CCCC4)c(O)c(CN4CCCC4)c3)c2n1 [PYRONARIDINE] | > 30 | > 30 | > 30 | 8.1 | > 30 | > 30 | > 30 | > 30 | > 30 | > 30 | 18 | > 30 |
